Data: patent US6452028B1, “Vitamin D3 analogs” (Hoffmann-La Roche Inc., priority 1996, dated 2002)

Columns and labels:
HL-60 cells = assay: HL-60 cell differentiation (NBT reduction); format: cell-based; details: concentration leading to 50% of maximal differentiation achieved with 100-1000 nM calcitriol, 3 days, read-out: ED50 (the source's name)
Description: HL-60 Cell Differentiation
The induction of differentiation of HL-60 cells was assayed by measuring their oxidative burst potential via the reduction of nitrobluetetrazolium (NBT).
HL-60 cells (30,000 cells/90 μl of RPMI/supplemented medium) were seeded into flat-bottomed microtiter wells. Immediately after seeding, 10 μl of test compounds diluted in supplemented RPMI medium were added to the wells at the same time to yield final concentrations between 10^−11 and 10^−6 M (starting from stock solutions of 10^−2 M in ethanol stored at −20° C. and protected from light).

HaCaT cell line = assay: Inhibition of keratinocyte proliferation (3H-thymidine uptake); format: cell-based, human; details: 3H-thymidine incorporation after 6 days of culture in presence of the test compound
[1] = test system: MCF-7 breast carcinoma cells; assay: Antiproliferative activity in MCF-7 breast carcinoma cells (MTT); format: cell-based; details: inhibition of cell growth, day 3 to 7 post drug addition, Reed and Muench formula
[2] = test system: T47-D breast carcinoma cells; assay: Antiproliferative activity in T47-D breast carcinoma cells (MTT); format: cell-based; details: inhibition of cell growth, day 3 to 7 post drug addition, Reed and Muench formula

C=C1C(=CC=C2CCCC3(C)C(C(C)CCCC(C)(C)O)=CCC23)CC(O)CC1O (stereo not drawn) [1,25-Dihydroxy-16-ene-20-epi-cholecalciferol]
EC50 (HL-60 cells): 2.5 nM
IC50 (HaCaT cell line): 4 nM

CCC(O)(C#CCC(C)C1=CCC2C(=CC=C3CC(O)CC(O)C3)CCCC12C)CC (stereo not drawn) [1,25-Dihydroxy-16-ene-23-yne-26,27-bishomo-19-nor-20-epi-cholecalciferol]
IC50 [1]: 12 nM

C=C1C(=CC=C2CCCC3(C)C(C(C)CC#CC(O)(C(F)(F)F)C(F)(F)F)=CCC23)CC(O)CC1F (stereo not drawn) [1α-Fluoro-25-hydroxy-16-ene-23-yne-26,27-hexafluoro-20-epicholecalciferol]
IC50 [1]: 11 nM

C=C1/C(=C\C=C2/CCC[C@]3(C)C([C@@H](C)C/C=C/C(O)(C(F)(F)F)C(F)(F)F)=CC[C@@H]23)C[C@@H](O)C[C@@H]1F [1α-Fluoro-25-hydroxy-16,23E-diene-26,27-hexafluoro-20-epi-cholecalciferol]
IC50 [1]: 9 nM

C=C1C(=CC=C2CCCC3(C)C(C(C)CC#CC(C)(C)O)=CCC23)CC(O)CC1O (stereo not drawn) [1,25-Dihydroxy-16-ene-23-yne-20-epi-cholecalciferol]
EC50 (HL-60 cells): 15 nM
IC50 (HaCaT cell line): 93 nM

C=C1/C(=C\C=C2/CCC[C@]3(C)C([C@@H](C)CC#CC(O)(C(F)(F)F)C(F)(F)F)=CC[C@@H]23)C[C@@H](O)C[C@@H]1O [1,25-Dihydroxy-16-ene-23-yne-26,27-hexafluoro-20-epi-cholecalciferol]
EC50 (HL-60 cells): 2 nM
IC50 [2]: 6.7 nM
IC50 [1]: 0.95 nM
IC50 (HaCaT cell line): 50 nM

C=C1C(=CC=C2CCCC3(C)C(C(C)C/C=C\C(O)(C(F)(F)F)C(F)(F)F)=CCC23)CC(O)CC1O (stereo not drawn) [1,25-Dihydroxy-16,23Z-diene-26,27-hexafluoro-20-epi-cholecalciferol]
EC50 (HL-60 cells): 2.3 nM

C=C1/C(=C\C=C2/CCC[C@]3(C)[C@@H]([C@H](C)CCCC(C)(C)O)CC[C@@H]23)C[C@@H](O)C[C@@H]1O [1,25-Dihydroxy-cholecalciferol, reference compound]
IC50 (HaCaT cell line; Homo sapiens, HaCaT): 55 nM

1,25-Dihydroxy-16,23Z-diene-26,27-hexafluoro-20-epi-19-nor-cholecalciferol
EC50 (HL-60 cells): 4.5 nM

C=C1/C(=C\C=C2/CCC[C@]3(C)C([C@@H](C)C/C=C/C(O)(CC)CC)=CC[C@@H]23)C[C@@H](O)C[C@@H]1F [1α-Fluoro-25-hydroxy-16-23E-diene-26,27-bishomo-20-epi-cholecalciferol]
IC50 [1]: 30 nM

C=C1C(=CC=C2CCCC3(C)C(C(C)C/C=C\C(O)(C(F)(F)F)C(F)(F)F)=CCC23)CC(O)CC1F (stereo not drawn) [1α-Fluoro-25-hydroxy-16,23Z-diene-26,27-hexafluoro-20-epi-cholecalciferol]
EC50 (HL-60 cells): 20 nM

C=C1/C(=C\C=C2/CCC[C@]3(C)C([C@@H](C)CC#CC(O)(CC)CC)=CC[C@@H]23)C[C@@H](O)C[C@@H]1O [1,25-Dihydroxy-16-ene-23-yne-26,27-bishomo-20-epi-chole-calciferol]
IC50 [1]: 11 nM
